Laboratory results from US8835458B2 (Hanmi Science Co., Ltd, priority 2010, dated 2014).
Counter-ions that a name gives are not always drawn.

What was measured:
[1] = test system: MDA-MB-231 breast cancer cell lines; assay: Evaluation of inhibition on cell growth (MTS); assay type: cell-based; conditions: Homo sapiens, MDA-MB-231, 120 hours
Method: (§1) MDA-MB-231 breast cancer cell lines (ATCC #HTB-26) and BxPC-3 pancreas cancer cell lines (ATCC #CRL 1687), which have been reported to express XIAP, were obtained from ATCC (American type culture collection; Rockville, Md.). MDA-MB-231 cell lines were incubated in L-15 medium supplemented with 10% FBS and 1% penicillin/streptomycin (Gibco BRL) at a T-75 cm^2 growth flask. In addition, BxPC-3 cell lines were incubated in RPMI medium supplemented with 10% FBS and 1% penicillin/streptomycin. For experiments of toxicity to normal cells, fibroblasts Hs27 (ATCC #CRL 1634) and Balb/c3t3 (ATCC #CCL 163) were used. The various cell lines were transferred into 96-well plates at a density of 3,000˜5,000 cells/100 μL, and cultured for 24 hours under conditions of 37° C., 5% CO2, 95% air, and 100% relative humidity (MDA-MB-231 cells were cultured under atmospheric conditions). The cells were treated with 10 μM˜0.1 nM of test compounds, and MDA-MB-231, BxPC-3, and normal cell lines were cultured for 120, 96, and 72 hours, respectively.
(§2) Cell viabilities of MDA-MB-231 cell lines were measured at an absorbance of 490 nm using CellTiter 96™ AQueous One Solution Cell proliferation Assay (MTS, Promega), and cell viabilities of BxPC-3 and normal cell lines were measured by fixing cells with 10% TCA (trichloroacetic acid), staining with SRB (sulforhodamine B), and measuring at 540 nm. From the values, GI50 values in which test compounds reduce the growth of cancer cells by 50% were calculated. The growth rates of cancer cells were calculated from following Equation 1 or 2. [(Ti−Tz)/(C−Tz)]×100 (for Ti>=Tz) [Equation 1] [(Ti−Tz)/Tz]×100 (for Ti<Tz) [Equation 2] In Equations 1 and 2, Tz refers to a density of untreated cells, which is an absorbance in 0% cell growth groups. C refers to a density of cells cultured by adding only medium, and Ti refers to a density of cells treated with test compounds.
(§3) GI50 value is the concentration of a test compound when the value of Equation 1 is 50, which indicates the concentration of test compound required to inhibit the cancer cells by 50%. On each measurement, test compounds were compared with a control.
(§4) The activity value of each compound (GI50 value) was shown in Table 5, and an IAP antagonist was used as a control.
(§5) In the activity measurement on MDA-MB-231 breast cancer cell lines, the values were represented as “***” for 100 nM or less, “**” for over 100 nM to below 1,000 nM, and “*” for 1,000 nM or more. In the measurement on normal cell lines, Balb/C and Hs27, the values were represented as “+++” for 10,000 nM or more, “++” for over 5,000 nM to below 10,000 nM, and “+” for 5,000 nM or less.

[2] = Toxicity to normal cells (SRB); assay type: cell-based, human; conditions: human, Hs27 fibroblasts (normal cell line)
Method: as §1, §2, §3, §4, §5

GI50 [1]	SMILES	GI50 at 72 h [2]
≤ 100 nM	CN[C@@H](C)C(=O)N[C@H](C(=O)N1CCC[C@H]1C(=O)Nc1cc2c(Nc3ccc(N4CCOCC4)c(Cl)c3)ncnc2cc1OC)C(C)(C)C [Example 95, (S)—N-(4-((3-chloro-4-morpholinophenyl)amino)-7-methoxyquinazolin-6-yl)-1-((S)-3,3-dimethyl-2-((S)-2-(methylamino)propanamido)butanoyl)pyrrolidine-2-carboxamide]	> 10000 nM
≤ 100 nM	CN[C@@H](C)C(=O)N[C@H](C(=O)N1CCC[C@H]1C(=O)Nc1cc2c(Nc3ccc(N4CCCCC4)c(Cl)c3)ncnc2cc1OC)C(C)(C)C [Example 96, (S)—N-(4-((3-chloro-4-(piperidin-1-yl)phenyl)amino)-7-methoxyquinazolin-6-yl)-1-((S)-3,3-dimethyl-2-((S)-2-(methylamino)propanamido)butanoyl)pyrrolidine-2-carboxamide hydrochloride]	> 10000 nM
≤ 100 nM	CN[C@@H](C)C(=O)N[C@H](C(=O)N1CCC[C@H]1C(=O)Nc1cc2c(Nc3ccc(N4CCN(C(C)C)CC4)c(Cl)c3)ncnc2cc1OC)C(C)(C)C [Example 97, (S)—N-(4-((3-chloro-4-(4-isopropylpiperazin-1-yl)phenyl)amino)-7-methoxyquinazolin-6-yl)-1-((S)-3,3-dimethyl-2-((S)-2-(methylamino)propanamido)butanoyl)pyrrolidine-2-carboxamide hydrochloride]	> 10000 nM
≤ 100 nM	CCCN1CCN(c2ccc(Nc3ncnc4cc(OC)c(NC(=O)[C@@H]5CCCN5C(=O)[C@@H](NC(=O)[C@H](C)NC)C(C)(C)C)cc34)cc2Cl)CC1 [Example 98, (S)—N-(4-((3-chloro-4-(4-propyl-1-yl)phenyl)amino)-7-methoxyquinazolin-6-yl)-1-((S)-3,3-dimethyl-2-((S)-2-(methylamino)propanamido)butanoyl)pyrrolidine-2-carboxamide hydrochloride]	> 10000 nM
≤ 100 nM	CCN(CC)c1ccc(Nc2ncnc3cc(OC)c(NC(=O)[C@@H]4CCCN4C(=O)[C@@H](NC(=O)[C@H](C)NC)C(C)(C)C)cc23)cc1Cl [Example 99, (S)—N-(4-((3-chloro-4-(diethylamino)phenyl)amino)-7-methoxyquinazolin-6-yl)-1-((S)-3,3-dimethyl-2-((S)-2-(methylamino)propanamido)butanoyl)pyrrolidine-2-carboxamide hydrochloride]	> 10000 nM
≤ 100 nM	CN[C@@H](C)C(=O)N[C@H](C(=O)N1CCC[C@H]1C(=O)Nc1cc2c(Nc3ccc(N4CCN(CC5CC5)CC4)c(F)c3)ncnc2cc1OC)C(C)(C)C [Example 100, hydrochloride]	> 10000 nM
≤ 100 nM	CN[C@@H](C)C(=O)N[C@H](C(=O)N1CCC[C@H]1C(=O)Nc1cc2c(Nc3cc(Cl)c(OCc4ccccn4)c(Cl)c3)ncnc2cc1OC)C(C)(C)C [Example 101, (S)—N-(4-((3,5-dichloro-4-(pyridin-2-ylmethoxy)phenyl)amino)-7-methoxyquinazolin-6-yl)-1-((S)-3,3-dimethyl-2-((S)-2-(methylamino)propanamido)butanoyl)pyrrolidine-2-carboxamide hydrochloride]	> 10000 nM
≤ 100 nM	CN[C@@H](C)C(=O)N[C@H](C(=O)N1CCC[C@H]1C(=O)Nc1cc2c(Nc3ccc(OCc4ccccn4)c(Cl)c3)ncnc2cc1OC)C(C)(C)C [Example 102, (S)—N-(4-((3-chloro-4-(pyridin-2-ylmethoxy)phenyl)amino)-7-methoxyquinazolin-6-yl)-1-((S)-3,3-dimethyl-2-((S)-2-(methylamino)propanamido)butanoyl)pyrrolidine-2-carboxamide hydrochloride]	> 10000 nM
≤ 100 nM	CN[C@@H](C)C(=O)N[C@H](C(=O)N1CCC[C@H]1C(=O)Nc1cc2c(Nc3ccc(N4CCC(N5CCCCC5)CC4)cc3)ncnc2cc1OC)C(C)(C)C [Example 103, (S)—N-(4-((4-([1,4′-bipiperidine]-1′-yl)phenyl)amino)-7-methoxyquinazolin-6-yl)-1-((S)-3,3-dimethyl-2-((S)-2-(methylamino)propanamido)butanoyl)pyrrolidine-2-carboxamide hydrochloride]	> 10000 nM
≤ 100 nM	CN[C@@H](C)C(=O)N[C@H](C(=O)N1CCC[C@H]1C(=O)Nc1cc2c(Nc3ccc(CN4CCCCC4)cc3)ncnc2cc1OC)C(C)(C)C [Example 104, (S)-1-((S)-3,3-dimethyl-2-((S)-2-(methylamino)propanamido)butanoyl)-N-(7-methoxy-4-((4-(piperidin-1-ylmethyl)phenyl)amino)quinazolin-6-yl)pyrrolidine-2-carboxamide hydrochloride]	> 10000 nM
≤ 100 nM	CN[C@@H](C)C(=O)N[C@H](C(=O)N1CCC[C@H]1C(=O)Nc1cc2c(Nc3ccc(N4CCC(N5CCN(C)CC5)CC4)cc3)ncnc2cc1OC)C(C)(C)C [Example 105, (S)-1-((S)-3,3-dimethyl-2-((S)-2-(methylamino)propanamido)butanoyl)-N-(7-methoxy-4-((4-(4-(4-methylpiperazin-1-yl)piperidin-1-yl)phenyl)amino)quinazolin-6-yl)pyrrolidine-2-carboxamide hydrochloride]	> 10000 nM
≤ 100 nM	CN[C@@H](C)C(=O)N[C@H](C(=O)N1CCC[C@H]1C(=O)Nc1cc2c(Nc3ccc(C4CCN(C)CC4)cc3)ncnc2cc1OC)C(C)(C)C [Example 106, (S)-1-((S)-3,3-dimethyl-2-((S)-2-(methylamino)propanamido)butanoyl)-N-(7-methoxy-4-((4-(1-methylpiperidin-4-yl)phenyl)amino)quinazolin-6-yl)pyrrolidine-2-carboxamide hydrochloride]	> 10000 nM
100 to 1000 nM	CN[C@@H](C)C(=O)N[C@H](C(=O)N1CCC[C@H]1C(=O)Nc1cc2c(NC3CCC(N4CCC(C)CC4)CC3)ncnc2cc1OC)C(C)(C)C (stereo partly drawn) [Example 107, (S)-1-((S)-3,3-dimethyl-2-((S)-2-(methylamino)propanamido)butanoyl)-N-(7-methoxy-4-((4-(4-methylpiperidin-1-yl)cyclohexyl)amino)quinazolin-6-yl)pyrrolidine-2-carboxamide hydrochloride]	> 10000 nM
≤ 100 nM	CN[C@@H](C)C(=O)N[C@H](C(=O)N1CCC[C@H]1C(=O)Nc1cc2c(Nc3ccc(S(=O)(=O)N4CCN(C)CC4)cc3)ncnc2cc1OC)C(C)(C)C [Example 108, (S)-1-((S)-3,3-dimethyl-2-((S)-2-(methylamino)propanamido)butanoyl)-N-(7-methoxy-4-((4-((4-methylpiperazin-1-yl)sulfonyl)phenyl)amino)quinazolin-6-yl)pyrrolidine-2-carboxamide hydrochloride]	> 10000 nM
≤ 100 nM	CN[C@@H](C)C(=O)N[C@H](C(=O)N1CCC[C@H]1C(=O)Nc1cc2c(Nc3ccc(C4CCCN(C)C4)cc3)ncnc2cc1OC)C(C)(C)C (stereo partly drawn) [Example 109, (2S)-1-((S)-3,3-dimethyl-2-((S)-2-(methylamino)propanamido)butanoyl)-N-(7-methoxy-4-((4-(1-methylpiperidin-3-yl)phenyl)amino)quinazolin-6-yl)pyrrolidine-2-carboxamide hydrochloride]	> 10000 nM
≤ 100 nM	CN[C@@H](C)C(=O)N[C@H](C(=O)N1CCC[C@H]1C(=O)Nc1cc2c(Nc3ccc(N4CCN(C5CCN(C)CC5)CC4)cc3)ncnc2cc1OC)C(C)(C)C [Example 110, hydrochloride]	> 10000 nM
100 to 1000 nM	CN[C@@H](C)C(=O)N[C@H](C(=O)N1CCC[C@H]1C(=O)Nc1cc2c(Nc3ccc(Cn4ccnc4)cc3)ncnc2cc1OC)C(C)(C)C [Example 111, (S)—N-(4-((4-((1H-imidazol-1-yl)methyl)phenyl)amino)-7-methoxyquinazolin-6-yl)-1-((S)-3,3-dimethyl-2-((S)-2-(methylamino)propanamido)butanoyl)pyrrolidine-2-carboxamide hydrochloride]	> 10000 nM
